According to paper PMC5913603, “Structure–activity relationships of strigolactones via a novel, quantitative in planta bioassay” (Journal of Experimental Botany, 2018):

How the values were obtained:
[1] = tested on: Phelipanche aegyptiaca seeds; assay: Germination-inducing activity on parasitic seeds; assay type: in vivo; conditions: for Fold lower potency than rac-GR24 (germination): compared with rac-GR24
Method: Seeds of Phelipanche aegyptiaca were collected from field-grown tomato in the West Galilee region of Israel. The seeds were stored in glass vials in the dark at room temperature until their use in germination tests. For the preparation of test solutions, the compound to be tested was weighed out very accurately, dissolved in acetone at 10^–2 M and then diluted with sterile distilled water to the desired concentrations. All solutions were prepared just before use. Seeds were surface-sterilized and preconditioned as described by [Bhattacharya et al. (2009)]. Briefly, after exposure for 5 min to 50% (v/v) aqueous solutions of commercial bleach (2% hypochlorite), seeds were rinsed with sterile distilled water. For preconditioning, seeds were placed on glass fibre filter discs using a sterile toothpick (approximately 50 seeds per disc); the glass fibre discs were placed on two filter paper discs, wetted with sterile distilled water, and incubated at 25 °C in the dark for 6 d. The preconditioned seeds were then allowed to dry completely in a laminar flow cabinet, after which they were treated with each compound at five different concentrations: 10^–5 M, 10^–6 M, 10^–7 M, 10^–8 M, and 10^–9 M. Their germination rate was evaluated under a stereomicroscope 7 d after the beginning of the treatment. For each concentration, at least 250 seeds were scored; synthetic SL rac-GR24 was included as a positive control across the same range of concentrations, while a solution of 0.001% acetone in sterile distilled water was included as a negative control. Seeds were scored as germinated if the radicle protruded through the seed coat 1 week after treatment. Germination values were normalized to those of rac-GR24 at 10^–7 M.
Fig. 3. Germination-inducing activity on Phelipanche aegyptiaca seeds of rac-1–9 and of strigol, ST23b, EGO10, and EDOT at different concentrations, compared to rac-GR24 0.1 μM as a positive control and to acetone as a negative control. […] The x-axis indicates the range of concentrations. Data are means (±SD) of n>250 seeds. Confidence intervals at 95% are used to express errors of the means. The data for rac-1–9 are indicated by ‘D-lactams’.

[2] = biological target: T1, AtD14 fused to firefly luciferase (D14::LUC) (Arabidopsis thaliana, UniProt Q9SQR3); assay: Luminometer (luciferase) assay: D14::LUC degradation in transgenic Arabidopsis seedlings; assay type: in vivo; conditions: for D14 degradation in the luciferase assay: 0.01–100 μM range, racemic mixtures
T1 construct: a pDONOR207 carrying the D14 promoter fused to the D14 CDS; expressed in transfected cells
T1 sequence (Q9SQR3 1-267): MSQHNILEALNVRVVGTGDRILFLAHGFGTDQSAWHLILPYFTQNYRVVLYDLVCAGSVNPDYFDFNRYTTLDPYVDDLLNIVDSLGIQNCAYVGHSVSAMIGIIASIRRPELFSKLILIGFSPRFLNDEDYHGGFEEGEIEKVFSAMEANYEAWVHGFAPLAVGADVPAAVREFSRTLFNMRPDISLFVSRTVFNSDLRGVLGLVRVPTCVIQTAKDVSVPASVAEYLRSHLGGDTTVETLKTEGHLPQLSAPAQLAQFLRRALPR
Method: A binary D14p::D14::LUC vector was obtained by LR-recombination (Invitrogen) of a pDONOR207 carrying the D14 promoter fused to the D14 CDS ([Chevalier et al., 2014]) in pGWB435 ([Nakagawa et al., 2007]). Transgenic D14::D14::LUC Arabidopsis plants were generated by agroinfiltration of Col-0 plants using the floral dip method ([Clough and Bent, 1998]). Seeds were surface-sterilized with an 8% aqueous solution of commercial bleach in distilled water for 5 min and rinsed five times with sterile distilled water. Sterile seeds were plated on MS medium (pH 5.8) ([Murashige and Skoog, 1962]) without sucrose solidified with 1.2% Agar, and kept at 4 °C for 3 d (stratification). Seeds were then incubated for 7 d in a growth chamber at 25 °C and a photoperiod of 16 h light/8 h dark. SL analogues and mimics (Figs 1, 2) were accurately weighed and dissolved in acetone at 10^–2 M. Five different concentrations (10^–4 M, 10^–5 M, 10^–6 M, 10^–7 M, 10^–8 M) were prepared by 1:10 serial dilutions in liquid MS medium, together with blank controls containing corresponding water and acetone volumes in the medium. D-Luciferin (potassium salt) stock was prepared at 25 mg ml^–1 in DMSO, aliquoted and stored at –80 °C until use; all other solutions were prepared just before the assay. Using tweezers, 7-d-old Arabidopsis seedlings were placed in a 96-well microtiter plate with their cotyledons facing up (one seedling per well, in 170 µl of liquid MS medium), and 15 µl of luciferin (0.125 mg ml^–1, diluted 1:200 in MS from stock) was added to each well, corresponding to 1.875 µg. The plate was covered with a transparent film with a hole poked above each well to allow for gas exchange. Measurements were taken every 15 min in a multimode reader (LB942 Tristar2 S, Berthold Technologies) for the following 24 h; the signal was allowed to stabilize for 2–3 h in the light before treatments were started by adding 15 µl per well of the different SLs in MS medium, thus reaching a final volume in each well of 200 µl and 9.4 µg ml^– of luciferin. Appropriate blank controls were added as well. Each treatment was applied to a minimum of 16 wells (seedlings), each of which was measured individually over time. The percentage efficacy of each compound molecule was calculated 6 h after treatment as a function of the decrease in D14::LUC-emitted luminescence with respect to (+)-GR24 1 µM (i.e. GR24^5DS), assuming that the latter, minus the drift of the corresponding blank control, had 100% efficacy. For calibration purposes, SL analogues that had already been characterized, namely (±)-ST23b, (±)-EGO10, and (±)-EDOT ([Prandi et al., 2011]), were tested across the same concentration range, along with (±)-strigol (Chiralix, NL). The half maximal-effective concentration (EC50) for (+)-GR24 was calculated by linear regression fitting of the data (n=5, with at least three individual seedlings and values being pooled for each replicate) at the different concentrations, minus the values for acetone-treated samples (negative controls) and normalized in relation to (+)-GR24 0.01 μM, which was set to 0%. Confidence intervals at 95% were used to express errors of the means.
D14 is a target for proteasome-dependent destruction upon interaction with its ligand(s), which explains why fluorescence of D14::GFP fusion proteins is quenched upon SL treatment in transgenic Arabidopsis ([Chevalier et al., 2014]). We exploited this molecular network to implement a quantitative activity assay that inversely correlated luminescence to perception of SL-related molecules in transgenic Arabidopsis expressing D14::LUC under the control of the D14 endogenous promoter. […] We then used the assay to test various SLs in the same range, namely strigol as an example of natural SLs; ST23b, EGO10, and EDOT (Fig. 1, all used as rac mixtures) as examples of active SL analogues; and the new set of SL-D-lactams rac-1–9 (Fig. 2).
Fig. 4. Luciferase assay. […]

Row | D14 degradation in the luciferase assay [2] | Activity in the luciferase assay at 10 μM ([2]; 10 μM) | Activity in the luciferase assay at 100 μM ([2]; 100 μM) | Structure (SMILES) | Fold lower potency than rac-GR24 (germination) [1] | Concentration at which high germination activity was shown ([1]; high activity only at this concentration, germination normalized to rac-GR24 0.1 μM) [µM] | Germination efficiency at 1 μM ([1]; 1 μM) | Concentration at which some germination activity could still be detected ([1]; tested 10^-9 to 10^-5 M) [µM] | Germination activity at 10 μM ([1]; 10 μM)
1 | almost inactive |  |  | CC1=C[C@H](O/C=C2/C(=O)O[C@@H]3c4ccccc4C[C@H]23)NC1=O (racemic) [rac-3] | ~ 100 fold | 10 |  |  | 
2 | weak activity |  |  | CC1=C[C@H](O/C=C2/C(=O)O[C@H]3c4ccccc4C[C@@H]23)NC1=O (racemic) [rac-4] | ~ 10 fold |  | efficiency comparable to GR24 | 1 | 
3 | substantially inactive | inactive | partial agonist | CC1=CC(C2Cc3c(n(C)c4ccccc34)C2=O)NC1=O (racemic) [rac-9] |  |  |  |  | inactive
